Columns and labels:
[1] = system: smallflower flatsedge; test: Test B flood test smallflower flatsedge; assay type: in vivo, Cyperus difformis
Summary of the method: (§1)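 Plants were grown to the 2-leaf stage before treatment with test chemical, then held in a greenhouse for twelve to sixteen days. Injury was visually rated against untreated controls on a 0–10 scale, where 0 is no effect and 10 is complete control.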

[2] = system: wild oat; test: Test B pre/postemergence wild oat; assay type: in vivo, Avena fatua; conditions: for Plant response rating, Wild oats: scale of 0 to 10 where 0 is no effect and 10 is complete control
Summary of the method: (§2)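 Response is a visual 0-to-10 score relative to untreated plants, where 0 means no effect and 10 means complete control, taken twelve to sixteen days after application. Treatments went onto soil at planting and onto foliage of 1- to 4-leaf plants, using a surfactant-containing non-phytotoxic solvent.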

[3] = system: wheat; test: Test B pre/postemergence wheat; assay type: in vivo, Triticum aestivum; conditions: for Plant response rating, Wheat: scale of 0 to 10 where 0 is no effect and 10 is complete control
Summary of the method: as §2

[4] = system: soybean; test: Test B pre/postemergence soybean; assay type: in vivo, Glycine max; conditions: for Plant response rating, Soybean: scale of 0 to 10 where 0 is no effect and 10 is complete control
Summary of the method: as §2

[5] = system: surinam grass; test: Test B pre/postemergence surinam grass; assay type: in vivo, Brachiaria decumbens
Summary of the method: as §2

[6] = system: cocklebur; test: Test B pre/postemergence cocklebur; assay type: in vivo, Xanthium strumarium
Summary of the method: as §2

[7] = system: velvetleaf; test: Test B pre/postemergence velvetleaf; assay type: in vivo, Abutilon theophrasti; conditions: for Plant response rating, Velvetleaf: scale of 0 to 10 where 0 is no effect and 10 is complete control
Summary of the method: as §2

[8] = system: bedstraw; test: Test B pre/postemergence bedstraw; assay type: in vivo, Galium aparine; conditions: for Bedstraw plant response rating: Postemergence; for Plant response rating, Bedstraw: Preemergence
Summary of the method: as §2

[9] = system: rice; test: Test B flood test rice; assay type: in vivo, Oryza sativa
Summary of the method: as §1

[10] = system: purple nutsedge; test: Test B pre/postemergence purple nutsedge; assay type: in vivo, Cyperus rotundus; conditions: for Plant response rating, Nutsedge: scale of 0 to 10 where 0 is no effect and 10 is complete control
Summary of the method: as §2

[11] = system: bamyardgrass; test: Test B flood test barnyardgrass; assay type: in vivo, Echinochloa crus-galli
Summary of the method: as §1

[12] = system: blackgrass; test: Test B pre/postemergence blackgrass; assay type: in vivo, Alopecurus myosuroides
Summary of the method: as §2

[13] = system: morningglory; test: Test B pre/postemergence morningglory; assay type: in vivo, Ipomoea hederacea; conditions: for Plant response rating, Morningglory: scale of 0 to 10 where 0 is no effect and 10 is complete control
Summary of the method: as §2

[14] = system: giant foxtail; test: Test B pre/postemergence giant foxtail; assay type: in vivo, Setaria faberii
Summary of the method: as §2

[15] = system: crabgrass; test: Test B pre/postemergence crabgrass; assay type: in vivo, Digitaria sanguinalis
Summary of the method: as §2

[16] = system: pigweed; test: Test B pre/postemergence pigweed; assay type: in vivo, Amaranthus retroflexus; conditions: for Plant response rating, Redroot pigweed: scale of 0 to 10 where 0 is no effect and 10 is complete control
Summary of the method: as §2

[17] = Rate 62 g/ha, flood test species, Pre-emergence, visual evaluation after twelve to sixteen days
[18] = Rate 125 g/ha, under heading Pre-emergence, flood test species, visual evaluation after twelve to sixteen days
[19] = Rate 250 g/ha, Pre-emergence (flood test species), scale 0 to 10, 0 is no effect, 10 is complete control
[20] = Rate 500 g/ha, Pre-emergence, flood test species, scale 0 to 10 (0 no effect, 10 complete control)
[21] = Postemergence, Rate 250 g/ha, scale 0 to 10
[22] = Preemergence, Rate 250 g/ha, scale 0 to 10, 0 is no effect, 10 is complete control
[23] = Preemergence, Rate 500 g/ha, scale 0 to 10, 0 is no effect, 10 is complete control
[24] = Rate 62 g/ha, Postemergence, scale 0 to 10, 0 no effect, 10 complete control
[25] = Rate 125 g/ha, Postemergence, scale 0 to 10, 0 is no effect, 10 is complete control
[26] = Postemergence, Rate 500 g/ha, scale of 0 to 10 where 0 is no effect and 10 is complete control
[27] = Preemergence, Rate 62 g/ha, scale of 0 to 10 where 0 is no effect and 10 is complete control
[28] = Preemergence, Rate 125 g/ha, scale of 0 to 10 where 0 is no effect and 10 is complete control

CC[Si](C)(C)Cn1c(=O)on(C(=O)N(c2ccc(F)cc2)C(C)C)c1=O [Compound 459]
Plant response rating, S. Flatsedge (0 to 10 scale, 0 is no effect, 10 is complete control) [1, 17]: 0
S. Flatsedge plant response rating (0 to 10 scale, 0 is no effect, 10 is complete control) [1, 18]: 0
S. Flatsedge plant response rating [1, 19]: 0
S. Flatsedge plant response rating [1, 20]: 0
Wild oats plant response rating [2, 21]: 0
Plant response rating, Wild oats ([2]; Preemergence, Rate 62 g/ha): 0
Plant response rating, Wild oats ([2]; Preemergence, Rate 125 g/ha): 0
Wild oats plant response rating [2, 22]: 0
Wild oats plant response rating [2, 23]: 0
Wild oats plant response rating [2, 24]: 0
Wild oats plant response rating [2, 25]: 0
Wheat plant response rating [3, 21]: 0
Plant response rating, Wheat ([3]; Preemergence, Rate 62 g/ha): 0
Plant response rating, Wheat ([3]; Preemergence, Rate 125 g/ha): 0
Wheat plant response rating [3, 22]: 0
Wheat plant response rating [3, 23]: 0
Wheat plant response rating [3, 24]: 0
Wheat plant response rating [3, 25]: 0
Soybean plant response rating [4, 21]: 6
Plant response rating, Soybean ([4]; Preemergence, Rate 62 g/ha): 0
Plant response rating, Soybean ([4]; Preemergence, Rate 125 g/ha): 0
Soybean plant response rating [4, 22]: 0
Soybean plant response rating [4, 23]: 0
Soybean plant response rating [4, 24]: 3
Soybean plant response rating [4, 25]: 3
B. signalgrass plant response rating ([5]; Postemergence, Rate 250 g/ha, scale 0 to 10, 0 no effect, 10 complete control): 0
B. signalgrass plant response rating [5, 26]: 0
Plant response rating, B. signalgrass [5, 27]: 0
Plant response rating, B. signalgrass [5, 28]: 0
B. signalgrass plant response rating [5, 22]: 1
B. signalgrass plant response rating [5, 23]: 1
B. signalgrass plant response rating [5, 24]: 0
B. signalgrass plant response rating [5, 25]: 0
Cocklebur plant response rating [6, 21]: 0
Cocklebur plant response rating [6, 26]: 0
Plant response rating, Cocklebur [6, 27]: 0
Plant response rating, Cocklebur [6, 28]: 0
Cocklebur plant response rating [6, 22]: 0
Cocklebur plant response rating [6, 23]: 0
Cocklebur plant response rating [6, 24]: 0
Cocklebur plant response rating [6, 25]: 0
Velvetleaf plant response rating [7, 21]: 0
Plant response rating, Velvetleaf ([7]; Preemergence, Rate 62 g/ha): 0
Plant response rating, Velvetleaf ([7]; Preemergence, Rate 125 g/ha): 0
Velvetleaf plant response rating [7, 22]: 0
Velvetleaf plant response rating [7, 23]: 0
Velvetleaf plant response rating [7, 24]: 0
Velvetleaf plant response rating [7, 25]: 0
Bedstraw plant response rating ([8]; Rate 250 g/ha, scale 0 to 10): 6
Bedstraw plant response rating ([8]; Rate 500 g/ha, scale of 0 to 10 where 0 is no effect and 10 is complete control): 8
Plant response rating, Bedstraw ([8]; Rate 62 g/ha, scale of 0 to 10 where 0 is no effect and 10 is complete control): 0
Plant response rating, Bedstraw ([8]; Rate 125 g/ha, scale of 0 to 10 where 0 is no effect and 10 is complete control): 0
Plant response rating, Rice (0 to 10 scale, 0 is no effect, 10 is complete control) [9, 17]: 0
Rice plant response rating (0 to 10 scale, 0 is no effect, 10 is complete control) [9, 18]: 0
Rice plant response rating [9, 19]: 0
Rice plant response rating [9, 20]: 0
Nutsedge plant response rating [10, 21]: 0
Plant response rating, Nutsedge ([10]; Preemergence, Rate 62 g/ha): 0
Plant response rating, Nutsedge ([10]; Preemergence, Rate 125 g/ha): 0
Nutsedge plant response rating [10, 22]: 0
Nutsedge plant response rating [10, 23]: 0
Nutsedge plant response rating [10, 24]: 0
Nutsedge plant response rating [10, 25]: 0
Plant response rating, Barnyardgrass (0 to 10 scale, 0 is no effect, 10 is complete control) [11, 17]: 0
Barnyardgrass plant response rating (0 to 10 scale, 0 is no effect, 10 is complete control) [11, 18]: 0
Barnyardgrass plant response rating [11, 19]: 0
Barnyardgrass plant response rating [11, 20]: 0
Blackgrass plant response rating [12, 21]: 8
Blackgrass plant response rating [12, 26]: 8
Plant response rating, Blackgrass [12, 27]: 0
Plant response rating, Blackgrass [12, 28]: 0
Blackgrass plant response rating [12, 22]: 5
Blackgrass plant response rating [12, 23]: 6
Blackgrass plant response rating [12, 24]: 0
Blackgrass plant response rating [12, 25]: 1
Plant response rating, Morningglory ([13]; Preemergence, Rate 62 g/ha): 0
Plant response rating, Morningglory ([13]; Preemergence, Rate 125 g/ha): 0
Morningglory plant response rating [13, 22]: 0
Morningglory plant response rating [13, 23]: 0
Morningglory plant response rating [13, 24]: 6
Morningglory plant response rating [13, 25]: 8
Giant foxtail plant response rating [14, 21]: 2
Giant foxtail plant response rating [14, 26]: 5
Plant response rating, Giant foxtail [14, 27]: 8
Plant response rating, Giant foxtail [14, 28]: 9
Giant foxtail plant response rating [14, 22]: 10
Giant foxtail plant response rating [14, 23]: 10
Giant foxtail plant response rating [14, 24]: 0
Giant foxtail plant response rating [14, 25]: 0
Crabgrass plant response rating [15, 21]: 5
Crabgrass plant response rating [15, 26]: 8
Plant response rating, Crabgrass [15, 27]: 5
Plant response rating, Crabgrass [15, 28]: 7
Crabgrass plant response rating [15, 22]: 9
Crabgrass plant response rating [15, 23]: 10
Crabgrass plant response rating [15, 24]: 0
Crabgrass plant response rating [15, 25]: 1
Redroot pigweed plant response rating [16, 21]: 0
Plant response rating, Redroot pigweed ([16]; Preemergence, Rate 62 g/ha): 0
Plant response rating, Redroot pigweed ([16]; Preemergence, Rate 125 g/ha): 0
Redroot pigweed plant response rating [16, 22]: 4
Redroot pigweed plant response rating [16, 23]: 7
Redroot pigweed plant response rating [16, 24]: 0
Redroot pigweed plant response rating [16, 25]: 0

— patent US6737383B1, “Herbicidal oxadiazolidines” (priority 1999, dated 2004)
